Structures can show the parent of a compound that is named as a salt.

The test has as its target T1, Human CARM1 (PRMT4) (Homo sapiens, UniProt Q86X55).
T1 construct: Flag-CARM1-His; made in house; host or cells: HEK 293F cells (BacMam baculovirus)
T1 sequence (Q86X55 1-585 isoform Q86X55-1): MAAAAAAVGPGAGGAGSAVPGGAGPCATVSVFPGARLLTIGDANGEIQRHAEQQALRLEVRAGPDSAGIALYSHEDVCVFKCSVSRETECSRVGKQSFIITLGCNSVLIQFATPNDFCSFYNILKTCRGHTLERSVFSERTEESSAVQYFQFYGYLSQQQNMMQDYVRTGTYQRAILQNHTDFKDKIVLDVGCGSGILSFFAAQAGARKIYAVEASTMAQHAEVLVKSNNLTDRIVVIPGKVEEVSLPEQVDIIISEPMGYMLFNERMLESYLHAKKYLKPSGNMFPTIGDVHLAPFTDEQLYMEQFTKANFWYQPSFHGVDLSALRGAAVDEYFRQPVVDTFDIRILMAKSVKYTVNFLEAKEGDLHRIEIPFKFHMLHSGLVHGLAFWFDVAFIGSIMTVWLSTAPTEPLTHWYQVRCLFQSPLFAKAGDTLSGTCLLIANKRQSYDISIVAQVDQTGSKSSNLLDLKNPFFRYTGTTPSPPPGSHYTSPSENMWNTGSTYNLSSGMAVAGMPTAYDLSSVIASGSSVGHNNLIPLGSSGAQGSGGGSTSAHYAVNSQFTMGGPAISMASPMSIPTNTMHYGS
The test can be described thus: CARM1 Biochemical Assay (3H-SAM Flashplate, peptide substrate). The conditions noted are these: single experiment or average of multiple experiments. From the text: S-adenosylmethionine (SAM), S-adenosylhomocysteine (SAH), bicine, Tween20, dimethylsulfoxide (DMSO), bovine skin gelatin (BSG), sodium butyrate and Tris(2-carboxyethyl)phosphine hydrochloride solution (TCEP) were purchased from Sigma-Aldrich at the highest level of purity possible. ^3H-SAM was purchase from American Radiolabeled Chemicals with a specific activity of 80 Ci/mmol. 384-well streptavidin Flashplates were purchased from PerkinElmer.
Peptide representative of human histone H3 residues 16-30 was synthesized with an N-terminal linker-affinity tag motif and a C-terminal amide cap by 21st Century Biochemicals. […] The sequence was Biot-Ahx-[…]-amide and contained a monomethylated arginine at position 26 (SEQ ID NO.: 14).
Recombinant baculovirus were generated according to Bac-to-Bac kit instructions (Life Technologies). […] Infections were carried out at 37° C. for 48 hours, harvested by centrifugation, and stored at −80° C. for purification.
Column was washed with 500 mM NaCl in buffer A and Flag-CARM1-His was eluted with 200 ug/ml FLAG peptide in buffer A. Pooled fractions were dialyzed in 20 mM Tris, 150 mM NaCl, 5% glycerol and 1 mM DTT, pH 7.8.
General Procedure for CARM1 Enzyme Assays on Peptide Substrates.
The assays were all performed in a buffer consisting of 20 mM Bicine (pH=7.6), 1 mM TCEP, 0.005% BSG, and 0.002% Tween 20, prepared on the day of use. […] DMSO (1 ul) was added to Columns 11, 12, 23, 24, rows A-H for the maximum signal control and 1 ul of SAH, a known product and inhibitor of CARM1, was added to columns 11, 12, 23, 24, rows I-P for the minimum signal control. A cocktail (40 ul) containing the CARM1 enzyme was added by Multidrop Combi (Thermo-Fisher). The compounds were allowed to incubate with CARM1 for 30 min at room temperature, then a cocktail (10 ul) containing ^3H-SAM and peptide was added to initiate the reaction (final volume=51 ul). […] The assays were stopped by the addition of non-radiolabeled SAM (10 ul) to a final concentration of 300 uM, which dilutes the ^3H-SAM to a level where its incorporation into the peptide substrate is no longer detectable. 50 ul of the reaction in the 384-well polypropylene plate was then transferred to a 384-well Flashplate and the biotinylated peptides were allowed to bind to the streptavidin surface for at least 1 hour before being washed once with 0.1% Tween20 in a Biotek ELx405 plate washer. The plates were then read in a PerkinElmer TopCount plate reader to measure the quantity of ^3H-labeled peptide bound to the Flashplate surface, measured as disintegrations per minute (dpm) or alternatively, referred to as counts per minute (cpm).
Where dpm=disintegrations per minute, cmpd=signal in assay well, and min and max are the respective minimum and maximum signal controls.
Where top and bottom are the normally allowed to float, but may be fixed at 100 or 0 respectively in a 3-parameter fit. The Hill Coefficient normally allowed to float but may also be fixed at 1 in a 3-parameter fit. Y is the % inhibition and X is the compound concentration.
On to `CNCCN(C)Cc1cn(Cc2ccccn2)nc1-c1ccc(OC(C)C)cc1` [Compound 247], for which inhibition was half-maximal at 2820 nM (IC50).
For `CNCCN(C)Cc1cn(CCOC)nc1-c1ccc(OC(C)C)cc1` [Compound 253, N1-((3-(4-isopropoxyphenyl)-1-(2-methoxyethyl)-1H-pyrazol-4-yl)methyl)-N1,N2-dimethylethane-1,2-diamine hydrochloride] the value was 2260 nM.
For `CCN(CCN)Cc1c[nH]nc1-c1ccc(F)cc1` [Compound 62] the value was 672 nM; for `CN(CCN)Cc1c[nH]nc1-c1ccc(C#N)cc1` [Compound 68], 802 nM.
For `CN(CCN)Cc1cnn(CCO)c1-c1ccc(F)cc1` [Compound 65] the value was 8930 nM.
The molecule `CCCc1ccc(-c2n[nH]cc2CN(C)CCNC)cc1` [Compound 20] showed a concentration for half-maximal inhibition (IC50) of 278 nM.
Under `CNCCN(C)Cc1c[nH]nc1-c1cccc(C#N)c1` [Compound 22] stands 1370 nM.
Turning to `CNCCN(C)Cc1c[nH]nc1-c1cccc(OC)c1` [Compound 24], the IC50 is 1210 nM. The IC50 values of the last two molecules are within 1.5-fold of each other.
`CNCCN(C)Cc1c[nH]nc1-c1ccc(OC)cc1OC` [Compound 55] registered an IC50 of 4200 nM.
Consider `C=CC(=O)Nc1cccc(-c2[nH]ncc2CN(C)CCNC)c1` [Compound 258], for which the concentration for half-maximal inhibition (IC50) stood at 1700 nM.
Under `CNCCN(C)Cc1c[nH]nc1-c1cccc([N+](=O)[O-])c1` [Compound 21] stands 2090 nM; under `CNCCN(C)Cc1c[nH]nc1-c1ccc(F)cc1F` [Compound 49], 5040 nM; under `CNCCN(C)Cc1cn(Cc2cccnc2)nc1-c1ccc(OC(C)C)cc1` [Compound 246], 2430 nM.
The molecule `CNCCN(C)Cc1c[nH]nc1-c1ccc(N)cc1` [Compound 33] returned a half-maximal inhibitory concentration (IC50) of 1380 nM.
`CNCCN(C)Cc1c[nH]nc1-c1ccc(Oc2ccccc2)cc1` [Compound 37] showed a half-inhibitory concentration (IC50) of 15.2 nM.
Under `CNCCN(C)Cc1cn(C2CCC2)nc1-c1ccc(OC(C)C)cc1` [Compound 254, N1-((1-cyclobutyl-3-(4-isopropoxyphenyl)-1H-pyrazol-4-yl)methyl)-N1,N2-dimethylethane-1,2-diamine hydrochloride] stands 413 nM.
For `CNCCN(C)Cc1c[nH]nc1-c1cccc(O)c1` [Compound 26] the value was 2340 nM; for `CNCCN(C)Cc1cnn(CC(=O)OC)c1-c1ccc(OC(C)C)cc1` [Compound 249], 9630 nM.
In turn, `CNCCN(C)Cc1c[nH]nc1-c1ccc(C)cc1C` [Compound 29] showed an IC50 of 6300 nM.
For `CNCCN(C)Cc1c[nH]nc1-c1ccc2ccccc2c1` [Compound 58] the value was 582 nM; for `CNCCN(C)Cc1cnn(C2CCCC2)c1-c1ccc(OC(C)C)cc1` [Compound 255], 1170 nM; for `CNCCN(C)Cc1c[nH]nc1-c1ccccc1OC` [Compound 23], 1760 nM.
For `CCNC(=O)c1cccc(-c2n[nH]cc2CN(C)CCNC)c1` [Compound 43] the value was 4960 nM; for `CN(CCN)Cc1cn(CCO)nc1-c1ccc(F)cc1` [Compound 66], 3790 nM.
As to `CNCCN(C)Cc1c[nH]nc1-c1ccc(F)c(F)c1` [Compound 51], half-maximal inhibition (IC50) required 625 nM.
Take `CNCCN(C)Cc1cnn(CCCC(O)CO)c1-c1ccc(F)cc1` (stereo not shown) [Compound 31]: the IC50 was 1840 nM.
For `CNCCN(C)Cc1c[nH]nc1-c1ccc(OC)cc1` [Compound 25] the value was 1560 nM.
Under `CNCCN(C)Cc1c[nH]nc1-c1cc(F)ccc1F` [Compound 50] stands 4320 nM; under `CNCCN(C)Cc1cn(CCCC(O)CO)nc1-c1ccc(F)cc1` (stereo not shown) [Compound 30], 3680 nM; under `CNCCN(C)Cc1cn(CC(N)=O)nc1-c1ccc(OC(C)C)cc1` [Compound 251], 2980 nM.
Under `CNCCN(C)Cc1cn(CCC(O)CO)nc1-c1ccc(F)cc1` (stereo not shown) [Compound 59] stands 4590 nM.
Regarding `CNCCN(C)Cc1c[nH]nc1-c1cccc2ccccc12` [Compound 57], half-maximal inhibition (IC50) was put at 1310 nM.
Under `CNCCN(C)Cc1c[nH]nc1-c1ccc(OC)c(F)c1` [Compound 52] stands 1500 nM.
For `CNCCN(C)Cc1cn(CC(=O)OC)nc1-c1ccc(OC(C)C)cc1` [Compound 248] the value was 3750 nM; for `CNCCN(C)Cc1c[nH]nc1-c1ccc(O)cc1` [Compound 27], 1710 nM.
Molecule `CNCCN(C)Cc1c[nH]nc1-c1ccc(C(=O)c2ccccc2)cc1` [Compound 45] displayed an IC50 of 42.9 nM.
In turn, `CNCCN(C)Cc1c[nH]nc1-c1ccc(CO)cc1` [Compound 28] showed a 50% inhibitory concentration (IC50) of 337 nM.
In turn, `CNCCN(C)Cc1cn(C)nc1-c1ccc(OC(C)C)cc1` [Compound 243, N^1-((3-(4-isopropoxyphenyl)-1-methyl-1H-pyrazol-4-yl)methyl)-N1,N2-dimethylethane-1,2-diamine] displayed an IC50 of 301 nM.
Under `CCn1ncc(CN(C)CCNC)c1-c1ccc(OC(C)C)cc1` [Compound 252] stands 531 nM.
Under `CNCCN(C)Cc1cn(C2CCCCC2)nc1-c1ccc(OC(C)C)cc1` [Compound 256] stands 571 nM.

These data come from patent publication US9776972B2, “Pyrazole derivatives as arginine methyltransferase inhibitors and uses thereof” (priority 2013, dated 2017).
